Assay results reported in ChEMBL document CHEMBL5291721, “A preclinical secondary pharmacology resource illuminates target-adverse drug reaction associations of marketed drugs” (Nat Commun, 2023).

Tests used:
[1] = biological target: T1, 5-hydroxytryptamine receptor 1A (Homo sapiens, UniProt P08908)
T1 sequence (P08908 whole entry): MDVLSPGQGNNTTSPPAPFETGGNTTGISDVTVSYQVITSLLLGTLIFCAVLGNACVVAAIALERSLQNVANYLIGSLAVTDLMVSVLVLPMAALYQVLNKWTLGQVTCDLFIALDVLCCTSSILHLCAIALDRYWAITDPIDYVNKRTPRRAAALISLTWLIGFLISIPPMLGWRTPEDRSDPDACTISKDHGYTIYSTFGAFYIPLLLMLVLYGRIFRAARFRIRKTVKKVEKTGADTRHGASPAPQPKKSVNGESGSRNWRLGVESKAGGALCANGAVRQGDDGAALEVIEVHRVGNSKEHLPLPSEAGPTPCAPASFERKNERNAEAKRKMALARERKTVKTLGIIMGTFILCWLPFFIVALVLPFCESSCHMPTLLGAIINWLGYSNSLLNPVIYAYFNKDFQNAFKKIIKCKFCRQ

[2] = biological target: T2, Alpha-2A adrenergic receptor (Homo sapiens, UniProt P08913)
T2 sequence (P08913 whole entry): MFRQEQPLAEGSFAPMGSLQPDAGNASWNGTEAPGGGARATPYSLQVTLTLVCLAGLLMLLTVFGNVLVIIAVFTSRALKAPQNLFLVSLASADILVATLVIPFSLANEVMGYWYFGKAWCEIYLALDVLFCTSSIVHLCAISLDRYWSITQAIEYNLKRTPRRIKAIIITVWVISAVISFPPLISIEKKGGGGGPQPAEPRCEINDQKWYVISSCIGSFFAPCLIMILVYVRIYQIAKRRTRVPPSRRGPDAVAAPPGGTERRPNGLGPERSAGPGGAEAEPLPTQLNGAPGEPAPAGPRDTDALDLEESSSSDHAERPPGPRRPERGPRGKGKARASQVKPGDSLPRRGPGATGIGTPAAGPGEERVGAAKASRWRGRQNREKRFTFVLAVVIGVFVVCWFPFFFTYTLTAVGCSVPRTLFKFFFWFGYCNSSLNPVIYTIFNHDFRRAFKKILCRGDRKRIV

Thromboxane A2 receptor = biological target: T3, Thromboxane A2 receptor (Homo sapiens, UniProt P21731); format: functional, cell-based
T3 sequence (P21731 whole entry): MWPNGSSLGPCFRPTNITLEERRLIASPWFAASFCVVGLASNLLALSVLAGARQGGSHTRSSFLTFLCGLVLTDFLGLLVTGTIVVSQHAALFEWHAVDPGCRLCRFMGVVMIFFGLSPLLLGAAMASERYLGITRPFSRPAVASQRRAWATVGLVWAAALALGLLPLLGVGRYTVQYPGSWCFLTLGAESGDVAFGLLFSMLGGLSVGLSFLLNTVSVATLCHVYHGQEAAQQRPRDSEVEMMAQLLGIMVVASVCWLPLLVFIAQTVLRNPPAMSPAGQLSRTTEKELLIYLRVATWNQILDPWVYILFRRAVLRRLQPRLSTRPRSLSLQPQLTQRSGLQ

[3] = biological target: 3',5'-cyclic-AMP phosphodiesterase 4A (Homo sapiens, UniProt P27815); format: functional
D(1A) dopamine receptor = D(1A) dopamine receptor (Homo sapiens, UniProt P21728)
[4] = biological target: T4, Prostaglandin G/H synthase 1 (Homo sapiens, UniProt P23219); format: functional
[5] = biological target: Voltage-gated inwardly rectifying potassium channel KCNH2 (Homo sapiens, UniProt Q12809); format: functional
[6] = biological target: T5, Alpha-1A adrenergic receptor (Homo sapiens, UniProt P35348); format: functional, cell-based
T5 sequence (P35348 whole entry): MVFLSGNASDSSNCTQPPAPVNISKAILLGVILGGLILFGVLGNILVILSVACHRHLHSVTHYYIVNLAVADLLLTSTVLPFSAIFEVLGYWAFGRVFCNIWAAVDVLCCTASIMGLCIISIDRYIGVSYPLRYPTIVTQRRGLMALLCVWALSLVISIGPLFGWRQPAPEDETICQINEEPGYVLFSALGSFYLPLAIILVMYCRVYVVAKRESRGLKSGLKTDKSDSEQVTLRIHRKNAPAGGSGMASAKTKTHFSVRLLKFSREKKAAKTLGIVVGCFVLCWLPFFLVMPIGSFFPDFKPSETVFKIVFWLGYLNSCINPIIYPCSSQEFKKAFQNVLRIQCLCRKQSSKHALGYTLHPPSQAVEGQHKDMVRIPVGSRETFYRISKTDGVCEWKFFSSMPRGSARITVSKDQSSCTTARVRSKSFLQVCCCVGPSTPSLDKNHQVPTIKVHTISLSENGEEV

D(3) dopamine receptor = D(3) dopamine receptor (Homo sapiens, UniProt P35462)
[7] = biological target: cGMP-inhibited 3',5'-cyclic phosphodiesterase 3A (Homo sapiens, UniProt Q14432); format: functional
[8] = biological target: Sodium-dependent noradrenaline transporter (Homo sapiens, UniProt P23975)
[9] = biological target: 5-hydroxytryptamine receptor 2B (Homo sapiens, UniProt P41595); format: functional, cell-based
Prothrombin = Prothrombin (Homo sapiens, UniProt P00734); format: functional
Acetylcholinesterase = Acetylcholinesterase (Homo sapiens, UniProt P22303); format: functional
[10] = biological target: T6, Amine oxidase [flavin-containing] A (Homo sapiens, UniProt P21397); format: functional
T6 sequence (P21397 whole entry): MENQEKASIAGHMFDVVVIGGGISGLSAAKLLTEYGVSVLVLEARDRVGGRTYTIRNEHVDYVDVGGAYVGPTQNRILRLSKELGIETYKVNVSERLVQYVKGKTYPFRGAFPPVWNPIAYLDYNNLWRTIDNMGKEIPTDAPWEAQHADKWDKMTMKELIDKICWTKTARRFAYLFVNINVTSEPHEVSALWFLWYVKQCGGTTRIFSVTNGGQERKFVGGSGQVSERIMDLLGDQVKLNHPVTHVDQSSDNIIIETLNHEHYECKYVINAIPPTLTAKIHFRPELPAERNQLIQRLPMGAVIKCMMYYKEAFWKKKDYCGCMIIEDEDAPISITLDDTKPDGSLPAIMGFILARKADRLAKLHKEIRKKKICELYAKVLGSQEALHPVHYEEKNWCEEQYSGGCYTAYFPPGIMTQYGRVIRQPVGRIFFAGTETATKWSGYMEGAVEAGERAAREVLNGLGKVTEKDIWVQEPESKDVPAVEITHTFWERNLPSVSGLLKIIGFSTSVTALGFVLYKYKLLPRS

[11] = biological target: T4, Prostaglandin G/H synthase 1; format: functional; remark: listed apart in the source
Note: assay procedure not described here.

Sequence of 3',5'-cyclic-AMP phosphodiesterase 4A (P27815 whole entry): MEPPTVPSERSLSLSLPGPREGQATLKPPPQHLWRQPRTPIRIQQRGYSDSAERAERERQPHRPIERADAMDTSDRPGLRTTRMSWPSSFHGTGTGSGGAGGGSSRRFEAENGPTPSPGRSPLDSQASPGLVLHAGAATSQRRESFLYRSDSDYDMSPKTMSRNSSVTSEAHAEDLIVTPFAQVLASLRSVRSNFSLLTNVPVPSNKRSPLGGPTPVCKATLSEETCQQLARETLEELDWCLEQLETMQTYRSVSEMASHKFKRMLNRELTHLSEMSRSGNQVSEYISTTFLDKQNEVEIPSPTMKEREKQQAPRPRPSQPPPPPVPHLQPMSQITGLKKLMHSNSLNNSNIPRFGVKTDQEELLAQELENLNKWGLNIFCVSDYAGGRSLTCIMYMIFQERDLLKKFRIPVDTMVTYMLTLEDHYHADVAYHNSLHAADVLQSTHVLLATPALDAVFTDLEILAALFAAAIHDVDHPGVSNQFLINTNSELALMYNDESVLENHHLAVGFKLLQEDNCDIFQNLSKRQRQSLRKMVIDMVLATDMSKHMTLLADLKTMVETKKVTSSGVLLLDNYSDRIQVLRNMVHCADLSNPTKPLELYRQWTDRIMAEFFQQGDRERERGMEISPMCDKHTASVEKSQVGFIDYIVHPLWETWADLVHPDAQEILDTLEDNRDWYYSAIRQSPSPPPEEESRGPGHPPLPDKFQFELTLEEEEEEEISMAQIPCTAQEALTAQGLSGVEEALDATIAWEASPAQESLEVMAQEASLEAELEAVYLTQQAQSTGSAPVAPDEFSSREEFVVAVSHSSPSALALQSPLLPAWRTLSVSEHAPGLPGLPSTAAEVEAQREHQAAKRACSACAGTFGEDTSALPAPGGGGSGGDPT
T4 sequence (P23219 whole entry): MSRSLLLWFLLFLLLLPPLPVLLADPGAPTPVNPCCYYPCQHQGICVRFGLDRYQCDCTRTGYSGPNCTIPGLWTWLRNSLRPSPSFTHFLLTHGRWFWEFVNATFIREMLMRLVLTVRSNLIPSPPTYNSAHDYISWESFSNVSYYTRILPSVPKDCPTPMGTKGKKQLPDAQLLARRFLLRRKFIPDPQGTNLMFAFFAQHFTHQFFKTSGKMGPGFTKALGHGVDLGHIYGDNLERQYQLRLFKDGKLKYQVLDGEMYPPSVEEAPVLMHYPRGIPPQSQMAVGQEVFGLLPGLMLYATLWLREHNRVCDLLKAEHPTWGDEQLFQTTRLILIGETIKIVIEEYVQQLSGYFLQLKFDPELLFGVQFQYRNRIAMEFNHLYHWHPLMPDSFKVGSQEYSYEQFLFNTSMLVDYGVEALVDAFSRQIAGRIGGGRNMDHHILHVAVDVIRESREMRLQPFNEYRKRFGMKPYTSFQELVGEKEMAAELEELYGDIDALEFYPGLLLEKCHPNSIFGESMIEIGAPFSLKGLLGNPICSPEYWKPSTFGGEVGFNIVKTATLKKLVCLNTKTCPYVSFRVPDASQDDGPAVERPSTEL
Sequence of 5-hydroxytryptamine receptor 2B (P41595 whole entry): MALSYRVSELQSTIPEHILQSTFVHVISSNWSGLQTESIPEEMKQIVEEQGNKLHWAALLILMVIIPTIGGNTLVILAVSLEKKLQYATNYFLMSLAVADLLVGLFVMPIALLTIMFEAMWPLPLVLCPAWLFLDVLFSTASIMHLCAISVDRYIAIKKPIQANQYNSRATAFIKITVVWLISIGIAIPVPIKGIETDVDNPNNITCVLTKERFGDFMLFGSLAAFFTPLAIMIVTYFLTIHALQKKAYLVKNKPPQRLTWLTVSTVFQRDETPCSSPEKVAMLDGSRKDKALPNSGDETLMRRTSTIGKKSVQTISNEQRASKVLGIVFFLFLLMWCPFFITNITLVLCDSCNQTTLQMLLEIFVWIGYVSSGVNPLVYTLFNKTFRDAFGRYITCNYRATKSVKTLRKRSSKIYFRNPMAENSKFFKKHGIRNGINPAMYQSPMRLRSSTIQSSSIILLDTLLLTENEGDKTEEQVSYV
Sequence of Acetylcholinesterase (P22303 whole entry): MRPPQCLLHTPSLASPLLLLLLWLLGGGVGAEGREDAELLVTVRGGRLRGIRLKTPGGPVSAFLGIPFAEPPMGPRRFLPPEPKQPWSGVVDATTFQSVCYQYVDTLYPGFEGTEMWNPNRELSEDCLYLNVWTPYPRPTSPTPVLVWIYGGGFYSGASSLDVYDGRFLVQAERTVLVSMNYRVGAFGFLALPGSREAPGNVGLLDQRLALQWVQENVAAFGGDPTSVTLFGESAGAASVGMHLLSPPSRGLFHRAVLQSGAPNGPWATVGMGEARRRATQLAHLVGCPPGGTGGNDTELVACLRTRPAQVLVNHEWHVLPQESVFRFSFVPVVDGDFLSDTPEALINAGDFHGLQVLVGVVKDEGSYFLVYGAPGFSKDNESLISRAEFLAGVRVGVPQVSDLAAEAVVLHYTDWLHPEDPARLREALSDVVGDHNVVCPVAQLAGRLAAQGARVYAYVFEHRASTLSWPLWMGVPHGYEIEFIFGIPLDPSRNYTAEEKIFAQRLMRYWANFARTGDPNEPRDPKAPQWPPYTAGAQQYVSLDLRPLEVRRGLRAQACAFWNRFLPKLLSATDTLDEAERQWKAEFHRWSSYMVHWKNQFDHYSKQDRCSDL
Sequence of Voltage-gated inwardly rectifying potassium channel KCNH2 (Q12809 whole entry): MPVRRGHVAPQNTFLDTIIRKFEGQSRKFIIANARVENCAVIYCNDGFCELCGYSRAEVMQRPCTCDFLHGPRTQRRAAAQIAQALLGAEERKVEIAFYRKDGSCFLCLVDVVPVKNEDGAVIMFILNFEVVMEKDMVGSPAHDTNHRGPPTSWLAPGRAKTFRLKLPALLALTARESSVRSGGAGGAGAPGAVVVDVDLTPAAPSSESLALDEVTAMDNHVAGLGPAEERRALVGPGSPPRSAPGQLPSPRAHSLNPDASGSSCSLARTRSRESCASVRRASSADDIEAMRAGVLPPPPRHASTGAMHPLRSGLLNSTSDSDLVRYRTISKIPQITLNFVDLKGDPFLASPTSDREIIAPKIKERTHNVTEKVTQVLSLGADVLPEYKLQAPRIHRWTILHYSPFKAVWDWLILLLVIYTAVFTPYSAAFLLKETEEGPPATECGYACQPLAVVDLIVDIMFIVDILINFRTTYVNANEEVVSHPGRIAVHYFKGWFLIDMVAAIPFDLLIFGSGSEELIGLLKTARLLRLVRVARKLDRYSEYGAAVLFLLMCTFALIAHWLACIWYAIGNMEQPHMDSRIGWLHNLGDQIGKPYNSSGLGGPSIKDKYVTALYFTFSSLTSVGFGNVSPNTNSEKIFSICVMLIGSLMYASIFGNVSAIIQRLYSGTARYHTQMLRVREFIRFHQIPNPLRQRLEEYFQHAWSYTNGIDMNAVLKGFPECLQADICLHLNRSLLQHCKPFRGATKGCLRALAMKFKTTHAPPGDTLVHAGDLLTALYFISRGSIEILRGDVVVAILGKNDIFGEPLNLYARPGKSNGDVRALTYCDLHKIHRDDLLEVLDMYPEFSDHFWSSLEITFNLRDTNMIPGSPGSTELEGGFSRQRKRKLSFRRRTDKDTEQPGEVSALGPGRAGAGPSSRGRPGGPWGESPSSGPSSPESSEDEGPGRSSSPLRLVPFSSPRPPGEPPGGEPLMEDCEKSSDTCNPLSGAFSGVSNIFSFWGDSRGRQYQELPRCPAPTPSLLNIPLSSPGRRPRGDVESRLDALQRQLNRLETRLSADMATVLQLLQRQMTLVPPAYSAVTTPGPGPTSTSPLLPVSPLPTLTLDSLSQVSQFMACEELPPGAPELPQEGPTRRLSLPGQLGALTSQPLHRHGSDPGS
Sequence of D(3) dopamine receptor (P35462 whole entry): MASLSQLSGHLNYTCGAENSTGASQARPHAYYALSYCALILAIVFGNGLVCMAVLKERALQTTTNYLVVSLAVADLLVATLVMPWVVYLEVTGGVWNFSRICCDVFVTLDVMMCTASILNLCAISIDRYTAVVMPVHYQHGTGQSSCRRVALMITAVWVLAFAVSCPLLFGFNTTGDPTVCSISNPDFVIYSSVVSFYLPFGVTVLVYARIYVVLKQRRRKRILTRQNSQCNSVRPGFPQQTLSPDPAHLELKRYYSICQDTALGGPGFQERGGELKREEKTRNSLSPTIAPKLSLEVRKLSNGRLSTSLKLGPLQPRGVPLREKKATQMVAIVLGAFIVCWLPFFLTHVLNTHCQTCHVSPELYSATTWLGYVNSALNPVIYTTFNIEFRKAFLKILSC
Sequence of D(1A) dopamine receptor (P21728 whole entry): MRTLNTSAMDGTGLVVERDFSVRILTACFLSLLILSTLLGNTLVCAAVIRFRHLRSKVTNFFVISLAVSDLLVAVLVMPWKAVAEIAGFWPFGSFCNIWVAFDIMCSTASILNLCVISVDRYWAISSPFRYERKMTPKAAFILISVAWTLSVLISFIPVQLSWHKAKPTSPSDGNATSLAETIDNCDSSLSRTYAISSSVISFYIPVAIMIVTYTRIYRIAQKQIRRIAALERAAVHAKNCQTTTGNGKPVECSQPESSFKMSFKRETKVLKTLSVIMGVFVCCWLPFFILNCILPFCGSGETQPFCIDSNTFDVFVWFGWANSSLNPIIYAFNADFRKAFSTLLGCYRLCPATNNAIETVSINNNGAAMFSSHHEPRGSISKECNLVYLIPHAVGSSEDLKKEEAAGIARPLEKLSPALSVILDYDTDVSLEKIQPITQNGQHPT

SMILES	AC50 [1]	AC50 [2]	AC50 (Thromboxane A2 receptor)	AC50 [3]	AC50 (D(1A) dopamine receptor)	AC50 [4]	AC50 [5]	AC50 [6]	AC50 (D(3) dopamine receptor)	AC50 [7]	AC50 [8]	AC50 [9]	AC50 (Prothrombin)	AC50 (Acetylcholinesterase)	AC50 [10]	AC50 [11]
CN(C)c1ccc(O)c2c1C[C@H]1C[C@H]3[C@H](N(C)C)C(O)=C(C(N)=O)C(=O)[C@@]3(O)C(O)=C1C2=O [MINOCYCLINE]	> 30 µM	> 30 µM	> 30 µM	> 30 µM	> 30 µM	2.5 µM	> 30 µM	> 30 µM	> 30 µM	> 30 µM	> 30 µM	> 30 µM	> 30 µM	> 30 µM	> 30 µM	> 30 µM
CCNC(=O)/C=C(C)/C=C/C=C(C)/C=C/c1c(C)cc(OC)c(C)c1C [MOTRETINIDE]	> 30 µM	> 30 µM	> 30 µM	> 30 µM	> 30 µM	12 µM	5.7 µM	> 30 µM	> 30 µM	> 30 µM	24.1 µM	> 30 µM	> 30 µM	> 30 µM	> 30 µM	6.95 µM
C=CC(=O)Nc1cccc(Oc2nc(Nc3ccc(N4CCN(C)CC4)cc3)nc3ccsc23)c1 [OLMUTINIB]	2.44 µM	0.881 µM	4.35 µM	3.19 µM	3.81 µM	> 30 µM	0.54 µM	> 30 µM	0.453 µM	> 30 µM	12.3 µM	> 30 µM	> 30 µM	> 30 µM	> 30 µM	> 30 µM
COc1ccc2[nH]c([S+]([O-])Cc3ncc(C)c(OC)c3C)nc2c1 (stereo unspecified) [OMEPRAZOLE]	> 30 µM	> 30 µM	> 30 µM	> 30 µM	> 30 µM	> 30 µM	17 µM	> 30 µM	20.7 µM	> 30 µM	> 30 µM	> 30 µM	> 30 µM	> 30 µM	> 30 µM	5.76 µM
CCCCC1C(=O)N(c2ccccc2)N(c2ccc(O)cc2)C1=O (stereo unspecified) [OXYPHENBUTAZONE ANHYDROUS]	> 30 µM	> 30 µM	> 30 µM	> 30 µM	> 30 µM	21.8 µM	> 30 µM	> 30 µM	> 30 µM	> 30 µM	> 30 µM	> 30 µM	> 30 µM	> 30 µM	> 30 µM	7.8 µM
O=C(O)CN(CCN(CC(=O)O)CC(=O)O)CCN(CC(=O)O)CC(=O)O [PENTETIC ACID]	> 30 µM	1.32 µM	> 30 µM	> 30 µM	8.71 µM	> 30 µM	> 30 µM	> 30 µM	2.26 µM	> 30 µM	10.9 µM	> 30 µM	> 30 µM	> 30 µM	> 30 µM	> 30 µM
Nc1cccc2c1C(=O)N(C1CCC(=O)NC1=O)C2=O (stereo unspecified) [POMALIDOMIDE]	> 30 µM	> 30 µM	> 30 µM	> 30 µM	> 30 µM	> 30 µM	> 30 µM	> 30 µM	> 30 µM	> 30 µM	> 30 µM	> 30 µM	> 30 µM	> 30 µM	> 30 µM	> 30 µM
C[Se]CC[C@H](N)C(=O)O [SELENOMETHIONINE]	> 30 µM	> 30 µM	> 30 µM	> 30 µM	> 30 µM	> 30 µM	> 30 µM	> 30 µM	> 30 µM	> 30 µM	> 30 µM	> 30 µM	> 30 µM	> 30 µM	> 30 µM	> 30 µM
Cc1ccsc1C(=CCCN1CCC[C@@H](C(=O)O)C1)c1sccc1C [TIAGABINE]	> 30 µM	> 30 µM	> 30 µM	23.6 µM	> 30 µM	> 30 µM	> 30 µM	> 30 µM	> 30 µM	> 30 µM	> 30 µM	> 30 µM	> 30 µM	> 30 µM	> 30 µM	24.4 µM
Cc1ccc(C(=O)c2ccc(CC(=O)O)n2C)cc1 [TOLMETIN]	> 30 µM	> 30 µM	> 30 µM	> 30 µM	> 30 µM	0.0415 µM	> 30 µM	> 30 µM	> 30 µM	> 30 µM	> 30 µM	> 30 µM	> 30 µM	> 30 µM	> 30 µM	0.081 µM
Cc1ccccc1C(=O)Nc1ccc(C(=O)N2CCCC(O)c3cc(Cl)ccc32)c(C)c1 (stereo unspecified) [TOLVAPTAN]	11 µM	> 30 µM	7.42 µM	> 30 µM	> 30 µM	> 30 µM	> 30 µM	> 30 µM	> 30 µM	> 30 µM	> 30 µM	> 30 µM	> 30 µM	> 30 µM	> 30 µM	> 30 µM
